Source: ChEMBL document CHEMBL4342510, “Design and Synthesis of Benzene Congeners of Resolvin E2, a Proresolving Lipid Mediator, as Its Stable Equivalents” (ACS Med Chem Lett, 2020)
Calls of active or inactive are those of the source. The calls are words filed in the database; no cut-off is given here.

Experiments:
Mus musculus [1] = assay: Antiinflammatory activity against ip dosed BALB/c mouse model of heat-killed Propionibacterium acnes-induced peritonitis assessed as decrease in number of neutrophils administered 12 hrs post Propionibacterium acnes injection and measured after 12 hrs; format: functional, organism-based
Mus musculus [2] = assay: Antiinflammatory activity against BALB/c mouse model of heat-killed Propionibacterium acnes-induced peritonitis assessed as decrease in number of neutrophils at 300 pg, ip administered 12 hrs post Propionibacterium acnes injection and measured after 12 hrs; format: functional, organism-based
[3] = Metabolic stability in human liver microsomes assessed as parent compound remaining measured after 6 hrs by HPLC analysis; format: ADME, Microsome; settings: read-out: Stability

| remaining at 6 h [3] [%] | SMILES | inhibition (Mus musculus [1]) | inhibition (Mus musculus [2]) |
| --- | --- | --- | --- |
| < 40 | CC[C@@H](O)/C=C/C=C\C/C=C\C/C=C\C=C\[C@@H](O)CCCC(=O)O | Dose-dependent effect | Active |
| – | CC[C@@H](O)/C=C/c1ccccc1C/C=C/[C@@H](O)CCCC(=O)O | Dose-dependent effect | Active |
| – | CC[C@@H](O)/C=C/c1cccc(C/C=C/[C@@H](O)CCCC(=O)O)c1 | – | inactive |
| < 40 | CC[C@@H](O)/C=C/c1ccc(C/C=C/[C@@H](O)CCCC(=O)O)cc1 | – | inactive |
